Assay: gradient 5% acetonitrile 3 min, to 50% in 2 min, to 85% in 15 min, held 3 min, 100 µL/min
Details: column: Zorbax Extend-C18 2.1 x 50 mm; eluents: water / acetonitrile, 0.1% formic acid
Outline: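 The system's dead and dwell volumes were 40 μL and 900 μL, with a Zorbax Extend-C18 column (2.1 × 50 mm, 1.8 μm) run at 100 μL/min in water and acetonitrile containing 0.1% formic acid each. Pure standards were analyzed in mixtures of ~100 molecules by HPLC–quadrupole time-of-flight mass spectrometry in positive and negative ionization mode. Retention time was assigned from computationally picked, manually inspected adduct peaks.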

## O=C(CN1CCC(c2nc(-c3ccc(F)cc3)no2)CC1)Nc1ccc2c(c1)OCO2
  RP-LC retention time: 720 s

## CCCCN(CCNc1ncnc2onc(-c3ccccc3OC)c12)Cc1ccco1
  RP-LC retention time: 726 s

## CCOc1ccccc1NC(=O)NC1CCN(c2cc(N3CCCC3)cnn2)C1 (centres undefined)
  RP-LC retention time: 594 s

## CC(C)c1ccc(S(=O)(=O)N2CCN(c3cnn4cnnc4c3)CC2)cc1
  RP-LC retention time: 795 s

## COc1ccc2c(c1)c(CN1CCC(N3C[C@H](OC)[C@@H]3c3cccnc3)CC1)cn2C
  RP-LC retention time: 579 s

## CCc1noc(-c2ccc(=O)n(CC(=O)Nc3ccc(F)cc3)c2)n1
  RP-LC retention time: 1020 s

## CC(C)(C)c1nnc(-c2ccc3c(c2)OCO3)o1
  RP-LC retention time: 900 s

## Cc1cccc(N2CCN(S(=O)(=O)c3cc(-c4nnc(C5CC5)o4)co3)CC2)c1C
  RP-LC retention time: 1130 s

## CN(C)C(=O)c1csc(N2CCN(c3ccccc3F)CC2)n1
  RP-LC retention time: 884 s

## O=C(c1ccco1)N1CCN(c2ccc(=O)n(-c3ccccc3)n2)CC1
  RP-LC retention time: 701 s

## CCC(=O)N1CCC2(CC1)NC(=O)c1ccccc1O2
  RP-LC retention time: 649 s

## CCc1cc(=O)n(CC(=O)Nc2cc(Cl)ccc2OC)c(N2CCOCC2)n1
  RP-LC retention time: 935 s

## CCOc1cc(C)c(C)cc1S(=O)(=O)Nc1ccc(Cl)cn1
  RP-LC retention time: 961 s

## CCCC(NC(=O)Cc1cccc(F)c1)C(=O)Nc1nc2ccccc2[nH]1 (centres undefined)
  RP-LC retention time: 691 s

## CCc1noc([C@@H]2CC(F)(F)CN2C(=O)c2ccoc2C)n1
  RP-LC retention time: 833 s

## CC(C)CC(=O)N(CC(=O)N(Cc1ccc2c(c1)OCO2)Cc1ccco1)CC1CCCO1 (centres undefined)
  RP-LC retention time: 866 s

## O=C(Oc1coc(CSc2ncccn2)cc1=O)c1ccco1
  RP-LC retention time: 667 s

## CCc1ccccc1NC(=O)c1cc(C(C)C)n2nccc2n1
  RP-LC retention time: 1240 s

## COc1ccccc1C(=O)N1CCCC1c1cc(C(C)C)no1 (centres undefined)
  RP-LC retention time: 831 s

## Cc1noc([C@@H]2CN(Cc3cc(F)cc(F)c3)C[C@H]2CO)n1
  RP-LC retention time: 546 s

## CC1(C(=O)NC2CCN(c3ccc(=O)n(CCOc4ccccc4)n3)C2)CCCCC1 (centres undefined)
  RP-LC retention time: 906 s

## CC1CCN(c2ncc(S(=O)(=O)c3ccc(C(C)C)cc3)c(N)n2)CC1
  RP-LC retention time: 1240 s

## O=C(Nc1cccn2ncnc12)c1ccc(Cl)s1
  RP-LC retention time: 820 s

## O=C1COc2ccccc2N1Cc1nc(-c2ccccc2)no1
  RP-LC retention time: 971 s

## Cc1ccn2cc(CC(=O)Nc3ccc(F)cc3)nc2c1
  RP-LC retention time: 595 s

## Cc1ccc(-n2nc3c(N4CCCC(C(=O)NCCc5cccs5)C4)nnc(C)c3c2C)cc1 (centres undefined)
  RP-LC retention time: 748 s

## Cc1cc(-c2nnc(C3CC3)o2)c(C)n1CC(=O)NCc1cc(F)cc(F)c1
  RP-LC retention time: 813 s

## CCOC(=O)CNC(=O)NCC(c1ccccc1)c1c[nH]c2ccccc12 (centres undefined)
  RP-LC retention time: 847 s

## Cc1cc(C)cc(N2CCC(NC(=O)c3cccs3)C2=O)c1 (centres undefined)
  RP-LC retention time: 842 s

## CSc1ccc(NC(=O)N2CCN(c3cnn4c(C)nnc4c3)CC2)cc1
  RP-LC retention time: 576 s

## O=S(=O)(NCCOc1ccc2c(c1)OCO2)c1ccc(F)c(Cl)c1
  RP-LC retention time: 903 s

## O=C(Nc1cccc2ccc(-n3ccnc3)nc12)c1ccsc1
  RP-LC retention time: 615 s

## Cc1cc(C(=O)NCc2ccccc2F)nc2cc(-c3cccs3)nn12
  RP-LC retention time: 1120 s

## Cc1ccc2c(Nc3ccc(CC(=O)O)cc3)c(C(=O)N3CCCCCC3)cnc2n1
  RP-LC retention time: 595 s

## O=C(Nc1cc(-c2cccs2)nn1CCO)C1(c2ccccc2)CCOCC1
  RP-LC retention time: 734 s

## CCOC(=O)c1ccc(N2CC3=C(C2=O)C(c2ccc(OC)cc2)NC(=O)N3C)cc1 (centres undefined)
  RP-LC retention time: 878 s

## COCC(=O)Nc1ccc2nc(-c3ccc(Cl)cc3)cc(OCC(=O)OC)c2c1
  RP-LC retention time: 756 s

## Cc1ccnn1-c1ccc(SCC(=O)Nc2cccc(F)c2)nn1
  RP-LC retention time: 870 s

## CC(=O)Nc1cc(C(=O)N2CCN(c3cc(C)ccc3C)CC2)c2ccc(C)nc2c1
  RP-LC retention time: 1250 s

## O=C(Cn1nc2c(Oc3ccc(Cl)cc3)nccn2c1=O)NC1CCCCC1
  RP-LC retention time: 881 s

## Cn1c(C(=O)NCC2CCCO2)cc2c1CCN(Cc1cccc(F)c1)C2 (centres undefined)
  RP-LC retention time: 618 s

## Cc1oc2ccn(Cc3ccccc3F)c(=O)c2c1C(=O)NC1CCCCC1
  RP-LC retention time: 1160 s

## COCC1CCN(C(=O)C2CCN(c3cnn(Cc4ccccc4)c(=O)c3)CC2)CC1
  RP-LC retention time: 727 s

## Cc1ccc(NC(=O)Cn2c(N3CCOCC3)nc(C)cc2=O)c(Cl)c1
  RP-LC retention time: 755 s

## CCCn1cc(C(=O)NCCN2CCc3ccccc3C2)c2cccnc21
  RP-LC retention time: 648 s

## N#Cc1cccc(C(=O)N2CCc3cc(-c4ccno4)ccc32)c1
  RP-LC retention time: 724 s

## O=C(Cn1c(C(F)(F)F)nc2cc3c(cc21)OCCO3)NCc1ccc(Cl)cc1
  RP-LC retention time: 885 s

## COC(=O)c1c(C)[nH]c(C(=O)N2CCCC(C(=O)NCc3cccc(Cl)c3)C2)c1C (centres undefined)
  RP-LC retention time: 798 s

## Cn1cc(-c2cc3n(n2)CCC(=O)N3CC(=O)NCc2ccco2)c2ccccc21
  RP-LC retention time: 756 s

## CCC(C)(C)NS(=O)(=O)c1cccc(-c2nc(-c3ccccc3)no2)c1
  RP-LC retention time: 1230 s

## Cn1cc(S(=O)(=O)N2CCOCC2)cc1C(=O)N1CCN(c2ccccn2)CC1
  RP-LC retention time: 574 s

## CCC1CN(C(=O)N2CCC(C(=O)NCCCOC)CC2)c2cc(C)ccc2O1 (centres undefined)
  RP-LC retention time: 757 s

## COc1nc2ccccc2nc1N1CCCC(C(=O)Nc2ccc(Br)c(C)c2C)C1 (centres undefined)
  RP-LC retention time: 1260 s

## COCCN1C(=O)CCc2cc(NC(=O)Cc3ccccc3C)ccc21
  RP-LC retention time: 766 s

## Cc1cc(C)cc(Nc2c(-c3ccc(N4CCOCC4)cc3)nc3ncccn23)c1
  RP-LC retention time: 719 s

## CCOC(=O)CCNC(=O)N1CCC(N2C(=O)C3(CCCC3)C2c2scnc2C)CC1 (centres undefined)
  RP-LC retention time: 685 s

## COc1ccc(NC(=O)N2C[C@@H]3C[C@H]2C[C@@H]3NS(=O)(=O)c2ccccc2)cc1F
  RP-LC retention time: 778 s

## O=c1nccc(SCc2ccc(Cl)cc2Cl)[nH]1
  RP-LC retention time: 842 s

## COc1ccc(-c2nc3ncccn3c2Nc2ccc(OC)c(OC)c2)cc1
  RP-LC retention time: 640 s

## O=C(c1csc(-c2ccc(N3CCOCC3)nc2)n1)N1CCOCC1
  RP-LC retention time: 626 s

## COc1ccc(-c2ccc3c(N4CCOCC4)nc(N4C[C@@H](C)O[C@@H](C)C4)nc3n2)cc1CO
  RP-LC retention time: 698 s

## CNC(=O)[C@@H]1CN(C(=O)c2ccoc2C)C[C@H]1c1nc(C)no1
  RP-LC retention time: 612 s

## Cc1ccc(NC(=O)c2cccn2Cc2noc(C3CC3)n2)cc1F
  RP-LC retention time: 1010 s

## FC(F)(F)c1nc(N2CCN(C(c3ccccc3)c3ccccc3)CC2)nc2c1CCCCC2
  RP-LC retention time: 559 s

## CCc1ccc(NC(=O)Cc2c(C)nn(-c3nc(-c4ccc(F)cc4)cs3)c2C)cc1
  RP-LC retention time: 1240 s

## CC1=C(c2ccc(C)cc2)S(=O)(=O)N=C1N1CCCN(C(=O)Cc2ccsc2)CC1
  RP-LC retention time: 847 s

## Cc1cccc(N(C)C(=O)Cn2c(=O)n(-c3cccc(C)c3)c(=O)c3c2cc(C)n3C)c1
  RP-LC retention time: 752 s

## COc1ccc(-n2ccn3cc(-c4cc(OC)ccc4OC)nc3c2=O)cc1
  RP-LC retention time: 828 s

## CN(C)c1ccc(CNC(=O)c2nnc(-c3ccc(S(=O)(=O)N4CCCC4)cc3)o2)cc1
  RP-LC retention time: 688 s

## Cc1ccc(S(=O)(=O)N2CCC(n3c(-c4ccoc4)nc4cccnc43)C2)cc1 (centres undefined)
  RP-LC retention time: 863 s

## CN(C)CCNC(=O)Cn1c(=O)n(-c2ccccc2)c2ncccc21
  RP-LC retention time: 579 s

## CCCc1cc(C2CCCN2C(=O)Nc2ccc(C(=O)OC)cc2)no1 (centres undefined)
  RP-LC retention time: 807 s

## CCC(=O)NC(c1ccc(N(C)C)cc1)c1ccc2cccnc2c1O (centres undefined)
  RP-LC retention time: 620 s

## O=C(C1CCN(c2cnc(N3CCCCC3)nc2)CC1)N1CCOCC1
  RP-LC retention time: 599 s

## O=C1[C@H]2CN(Cc3cccc(F)c3)C[C@H]2C(=O)N1CCc1ccccc1
  RP-LC retention time: 804 s

## Cc1ccc(C)c(NC(=O)NCCc2cn(C)c3ncccc23)c1
  RP-LC retention time: 704 s

## CCCN(C)C(=O)c1cn2ccnc(-c3ccc(C)cc3)c2n1
  RP-LC retention time: 956 s

## NS(=O)(=O)c1ccc(NC(=O)c2csc3c2CCCC3)cc1
  RP-LC retention time: 769 s

## c1ccc(N2CCN(CCCOc3ccc4c(c3)OCO4)CC2)cc1
  RP-LC retention time: 770 s

## O=c1c(O[C@@H]2OC([C@H](O)CO)[C@H](O)[C@H]2O)c(-c2ccc(O)c(O)c2)oc2cc(O)cc(O)c12 (some centres undefined)
  RP-LC retention time: 641 s

## Cc1ccnc(N2CCCC(C(=O)NCCCN3CCN(c4cc(Cl)ccc4C)CC3)C2)n1 (centres undefined)
  RP-LC retention time: 670 s

## Cn1nc(N2CCC(NC(=O)Cc3c[nH]c4ccccc34)C2)ccc1=O (centres undefined)
  RP-LC retention time: 632 s

## O=C(CCc1nnc2c3cc(-c4ccccc4)nn3ccn12)N1CCN(C(=O)c2ccco2)CC1
  RP-LC retention time: 679 s

## CCCCOC(=O)c1ccc(NC(=O)c2c(O)c3cccc4c3n(c2=O)CC4)cc1
  RP-LC retention time: 1070 s

## COc1ccc(NC(=O)N2CCC(c3nc(C(=O)N(C)C)c(C)o3)CC2)cc1OC
  RP-LC retention time: 635 s

## COC(=O)c1c(C)[nH]c(C(=O)N2CCC(CC(=O)NC3CCCCCC3)CC2)c1C
  RP-LC retention time: 794 s

## CC(CNC(=O)c1cc2n(n1)CC(C)(C(=O)NC1CCCC1)N(C)C2=O)c1ccccc1 (centres undefined)
  RP-LC retention time: 884 s

## COc1ccccc1NC(=O)CSC1CCc2ccccc2NC1=O (centres undefined)
  RP-LC retention time: 793 s

## CCN1C(=O)c2cccnc2Sc2cc(CNC(=O)c3cccc(OC)c3)ccc21
  RP-LC retention time: 762 s
